Reference: patent publication US20080214671A1, “Dicarbonic Acid Derivatives, Metastasis Inhibitors and Agents Increasing Chemotherapeutic Activity of Anti-Tumor Preparations, Method for Enhancing the Cytostatic Efficiency and Metastasis Process Inhibiting Method” (priority 2005, published 2008)

Key:
Assay type in all cases: in vivo
[1] = tested on: Lewis lung carcinoma; assay: Lewis lung carcinoma in BDF1 mice, metastasis inhibition in the lungs
Experimental: (§1) An experimental study of the anti-tumor activity of the FB-13 preparation as a chemosensitizer was carried out on tumor models of P388 leukemia and Lewis metastatic lung carcinoma, which can be seen in Examples 5 and 6.
Lewis lung carcinoma was subcutaneously inoculated to hybrid mice BDF1. The inoculum was 5×10^6 tumor cells. The combined effect of FB-13 and cisplatin was investigated. The index of metastasis inhibition (IMI in %) in the lungs served as the assessment criterion. When cisplatin was administered alone, IMI was 50%, in combined administration with FB-13, it was 100% (FIG. 2).

[2] = tested on: Leukemia P388; assay: P388 leukemia in BDF1 mice, combined therapy with cytostatic
Experimental: as §1
Leukemia P388 was intraperitoneally inoculated to hybrid mice BDF1. The inoculum was 10^6 leukemic cells in 0.2 ml normal saline. The preparation was administered at a dose 10 mg/kg, cisplatin—at a dose 2 mg/kg on days 1, 3, 5 and 7 post transplantation. The number of cured (surviving for 60 days) animals served as an assessment criterion.
Similar studies were carried out with the preparation FB-14 (50 mg/kg) and cyclophosphane (60 mg/kg).
Furthermore, a significant increase in the average life span (ILS) of the animals as compared to the control group is shown in FIG. 4b.

[3] = tested on: B-16 melanoma; assay: B-16 melanoma in BDF1 mice, metastasis inhibition in the lungs
Experimental: Experimental B-16 melanoma was subcutaneously engrafted to hybrid mice BDF1. The inoculum was 5×10^6 tumor cells. The combined effect of FB-13 and cisplatin was investigated. The index of metastasis inhibition (IMI in %) in the lungs served as the assessment criterion. When cisplatin was administered alone, IMI was 52%, in combined administration with FB-13, it was 100%. Similar studies were carried out with hydroxamic acids based on oxalic acid (the compound L215) and based on tartaric acid (the compound L221). Tests for acute toxicity were carried out in the group of experimental oncology of the IPKhF of the RAS by intraperitoneal administration of the preparations in water to BDF1 mice. […] The use of these compounds at the minimum doses in combination with the minimum doses of cytostatics (when neither of the preparations taken alone provides a therapeutic effect) makes complete inhibition of the metastasis process in experimental B-16 melanoma or Lewis lung carcinoma possible. Furthermore, the use of dicarbonic acid oxyamides as agents for enhancing the anti-tumor effect makes it possible in a combination with the minimum amounts of oxyamide and a cytostatic (a unit dose of cytostatics being 4 times lower than a therapeutic dose) to enhance the efficacy in the treatment of P-388 leukemia (survival rate of the animals is 100%).

[4] = cisplatin administered alone, s.c. inoculum 5x10^6 cells
[5] = combined administration of FB-13 with cisplatin

N.N.[Cl][Pt][Cl] [cisplatin]
index of metastasis inhibition (IMI) in the lungs [1, 4]: 50% | number of cured (surviving for 60 days) animals ([2]; only cisplatin, 2 mg/kg on days 1, 3, 5 and 7 post transplantation, i.p. inoculum 10^6 cells): 66.7% | index of metastasis inhibition (IMI) in the lungs [3, 4]: 52%

NC(=O)C(N)=O.O=C(O)/C=C\C(=O)O [FB-13, Maleic acid monooxamide]
index of metastasis inhibition (IMI) in the lungs [1, 5]: 100% | number of cured (surviving for 60 days) animals ([2]; combined administration: FB-13 10 mg/kg and cisplatin 2 mg/kg on days 1, 3, 5 and 7): 100% | index of metastasis inhibition (IMI) in the lungs [3, 5]: 100%
